Laboratory results: patent US20250221960A1, “COMPOSITIONS AND METHODS FOR THE TREATMENT OF DEPRESSION” (Janssen Pharmaceuticals, Inc., priority 2022, published 2025)

What was measured:
subjects with MDD [1] = experiment: Biomarker signature subtyping of MADRS treatment outcome (Example 4); format: in vivo, human
Protocol: Serum or plasma was prepared from the samples of venous blood. Measurements of human CRP and IL-6-R were performed in serum using an MSD Sector 6000 with the kits #K151STD and K151ALC (MesoScale Discovery, Rockville, MD). Human TNFα was quantified in serum using a Simoa HD-1 analyzer with kit #143 (Quanterix, Lexington, MA). Human Dynorphin was assayed in plasma using a SpectraMax M plate reader (Molecular devices, San Jose, CA) with kit #CSB-E09128h (Cusabio, Wuhan, China). All measures were performed according to kit manufacturer's recommendations.
As used in the following biomarker assay analysis, treatment (TRT) refers to treatment with an SSRI/SNRI plus Aticaprant and placebo (PBO) refers to treatment with an SSRI/SNRI plus placebo.
Treatment Outcome: Change in clinical scale at the of end of the double period. Negative values indicate improvement in depression levels relative to baseline levels. The more negative the change, the greater the improvement.
Sig^Pos: Patient meeting the criteria defined by signature of biomarkers and/or clinical scales.
3 MM: Inflammatory biomarker signature with positive status defined by CRP>3 mg/L and (TNFα>4 pg/mL or sIL6R>25 ng/ml).
4 MM: Inflammatory biomarker signature with positive status defined by high dynorphin (δ1) or 3 MM with moderate dynorphin (δ2) subtypes, specifically: DYN>δ1 pg/mL or (DYN>δ2 pg/mL and CRP>3 mg/L and (TNFα>4 pg/ml or sIL6R>25 ng/ml)). In certain embodiments, the 4 MM DYN cutoffs are as follows: Dyn>50 OR (3 MM and Dyn>8); Dyn>24 OR (3 MM and Dyn>8), or Dyn>11.4 and 3 MM.
TE Sig^Pos: Treatment Effect in Signature Positive group: (Average mean MADRS change in placebo-Average mean MADRS change in treatment) in Sig^Pos group.
TE Sig^Neg: Treatment Effect in Signature Negative group.
Sig Adv: Signature Advantage (interaction) Difference in TE between signature groups: Sig Adv=TE Sig^Pos−TE Sig^Neg.
The effect of biomarker signatures on patient response to treatment is summarized in graphical form using two panel box plots in FIG. 25. […] Red color represents placebo and teal represents aticaprant. Rectangular boxes span Diamonds and error bars represent mean and 95% Confidence Interval (CI) of treatment outcome by treatment arm and biomarker signature status. In the signature positive group, the treatment effect (difference in average treatment outcome between treatment arms) was of 6.29 MADRS points (One sided p=0.07, effect size=0.75). While in the signature negative groups, the treatment effect was 1.59 MADRS points. In other words, subjects who are biomarker signature positive improve by an additional 4.7 points […] relative to placebo when treated with aticaprant, compared to subjects who are biomarker signature negative. This signature advantage of 4.7 MADRS points represents the interaction of biomarker signature status with treatment effect. Treatment effects, signature advantage, and corresponding p values are assessed using a linear regression model for treatment outcome with independent variables for treatment, biomarker signature status, and their interaction. All p-values are one sided. Significant is defined as nominal one sided p value <0.05.

subjects with MDD [2] = experiment: MADRS total score, adjunctive aticaprant vs placebo (Example 1); settings: for MADRS Total Score Change from Baseline LSMean (SE), MMRM / MADRS Total Score LSMean Difference (SE) Treatment - Placebo, MMRM / MADRS Total Score Effect Size vs placebo / MADRS Total Score Mean Change from Baseline (SD): 10 mg
[3] = High anhedonia, Treatment Week 1, fITT
[4] = High anhedonia, Treatment Week 3, fITT
[5] = High anhedonia, Treatment Week 4, fITT
[6] = High anhedonia, Treatment Week 5, fITT
[7] = High anhedonia, Treatment Week 6, fITT
[8] = Low anhedonia, Treatment Week 1, fITT
[9] = Low anhedonia, Treatment Week 3, fITT
[10] = Low anhedonia, Treatment Week 4, fITT
[11] = Low anhedonia, Treatment Week 5, fITT
[12] = Low anhedonia, Treatment Week 6, fITT

## Cc1cc(C)cc(C2CCCN2Cc2ccc(Oc3ccc(C(N)=O)cc3F)cc2)c1 (stereo not drawn) [aticaprant, 3-fluoro-4-4-2-(3,5-dimethylphenyl) pyrrolidin-1-yl-methylphenoxybenzamide]
Subjects with MDD [1]; 3 MM and DYN>δ signature (δ=11.5)
  treatment effect in biomarker signature positive patients: very large treatment effect
Subjects with MDD [1]; 3 MM or DYN signature negative
  average aticaprant response in biomarker signature negative patients: worse than that of placebo
Subjects with MDD [1]; 3 MM or high DYN signature, in more than 60% of patients
  signature advantage: 3-8 point
Subjects with MDD [1]; 3 MM signature
  signature advantage (TE SigPos - TE SigNeg): 4.7 MADRS points
Subjects with MDD [1]; 3 MM signature positive
  effect size in signature positive group: 0.75
Subjects with MDD [1]; 3 MM signature positive (21% of MDD), end of double-blind
  treatment effect in signature positive group (placebo - treatment MADRS change): 6.3 MADRS points
Subjects with MDD [1]; 4 MM signature (63% of MDD)
  improvement compared to biomarker signature negative counterpart: 6 points
Subjects with MDD [1]; 4 MM signature positive (63% of MDD)
  MADRS points difference at end DB relative to placebo: 4.6 MADRS points
Subjects with MDD [1]; DYN>δ1 or (3 MM and DYN>δ2), range of δ1
  treatment effects of 4 MM signatures: ≥ 4.5 MADRS points
Subjects with MDD [1]; in 38-63% of patients
  signature advantage of 4 MM signatures: > 5 point
Subjects with MDD [2]; High anhedonia (SHAPS >=38 at treatment baseline), Treatment Week 1, fITT
  MADRS Total Score: Mean Change from Baseline (SD): −4.4 (5.04)
Subjects with MDD [2]; [3]
  MADRS Total Score: Effect size: −0.45
  MADRS Total Score: Mean Change to Placebo (SD pooled): −2.0 (4.38)
Subjects with MDD [2]; [4]
  MADRS Total Score: Effect size: −0.54
  MADRS Total Score: Mean Change from Baseline (SD): −6.9 (6.66)
  MADRS Total Score: Mean Change to Placebo (SD pooled): −3.8 (6.94)
Subjects with MDD [2]; [5]
  MADRS Total Score: Effect size: −0.50
  MADRS Total Score: Mean Change from Baseline (SD): −8.6 (7.32)
  MADRS Total Score: Mean Change to Placebo (SD pooled): −3.8 (7.56)
Subjects with MDD [2]; [6]
  MADRS Total Score: Effect size: −0.51
  MADRS Total Score: Mean Change from Baseline (SD): −10.2 (8.04)
  MADRS Total Score: Mean Change to Placebo (SD pooled): −4.0 (7.87)
Subjects with MDD [2]; [7]
  MADRS Total Score: Effect size: −0.51
  MADRS Total Score: Mean Change from Baseline (SD): −11.3 (8.69)
  MADRS Total Score: Mean Change to Placebo (SD pooled): −4.6 (9.03)
Subjects with MDD [2]; Low anhedonia (SHAPS >=20 and <38 at treatment baseline), Treatment Week 1, fITT
  MADRS Total Score: Mean Change from Baseline (SD): −2.4 (4.59)
Subjects with MDD [2]; [8]
  MADRS Total Score: Effect size: −0.24
  MADRS Total Score: Mean Change to Placebo (SD pooled): −1.0 (4.39)
Subjects with MDD [2]; [9]
  MADRS Total Score: Effect size: −0.08
  MADRS Total Score: Mean Change from Baseline (SD): −4.1 (6.67)
  MADRS Total Score: Mean Change to Placebo (SD pooled): −0.5 (6.37)
Subjects with MDD [2]; [10]
  MADRS Total Score: Effect size: −0.23
  MADRS Total Score: Mean Change from Baseline (SD): −6.4 (6.77)
  MADRS Total Score: Mean Change to Placebo (SD pooled): −1.5 (6.65)
Subjects with MDD [2]; [11]
  MADRS Total Score: Effect size: −0.10
  MADRS Total Score: Mean Change from Baseline (SD): −7.3 (6.90)
  MADRS Total Score: Mean Change to Placebo (SD pooled): −0.7 (6.86)
Subjects with MDD [2]; [12]
  MADRS Total Score: Effect size: −0.29
  MADRS Total Score: Mean Change from Baseline (SD): −8.8 (7.48)
  MADRS Total Score: Mean Change to Placebo (SD pooled): −2.3 (7.80)
Subjects with MDD [2]; Treatment Week 6, both responders and non-responders during placebo lead-in, 10 mg vs placebo
  Change from Treatment Baseline in MADRS Total Score, Least Squares Mean Difference point estimate: −3.1 score on a scale
Subjects with MDD [2]; eITT
  MADRS LSMeans difference estimate, supplementary MMRM analysis (data prior to 15 Mar. 2020, COVID-19): −3.0
Subjects with MDD [2]; eITT, High anhedonia (baseline SHAPS >=38), Treatment Week 1
  MADRS Total Score Mean Change to Placebo: −1.8
Subjects with MDD [2]; eITT, High anhedonia (baseline SHAPS >=38), Treatment Week 3
  MADRS Total Score Mean Change to Placebo: −3.0
Subjects with MDD [2]; eITT, High anhedonia (baseline SHAPS >=38), Treatment Week 4
  MADRS Total Score Mean Change to Placebo: −2.2
Subjects with MDD [2]; eITT, High anhedonia (baseline SHAPS >=38), Treatment Week 5
  MADRS Total Score Mean Change to Placebo: −2.6
Subjects with MDD [2]; eITT, High anhedonia (baseline SHAPS >=38), Treatment Week 6
  MADRS Total Score Mean Change to Placebo: −3.4
Subjects with MDD [2]; eITT, Low anhedonia (baseline SHAPS >=20 and <38), Treatment Week 1
  MADRS Total Score Mean Change to Placebo: −0.5
Subjects with MDD [2]; eITT, Low anhedonia (baseline SHAPS >=20 and <38), Treatment Week 3
  MADRS Total Score Mean Change to Placebo: −0.1
Subjects with MDD [2]; eITT, Low anhedonia (baseline SHAPS >=20 and <38), Treatment Week 4
  MADRS Total Score Mean Change to Placebo: 0.0
Subjects with MDD [2]; eITT, Low anhedonia (baseline SHAPS >=20 and <38), Treatment Week 5
  MADRS Total Score Mean Change to Placebo: 0.3
Subjects with MDD [2]; eITT, Low anhedonia (baseline SHAPS >=20 and <38), Treatment Week 6
  MADRS Total Score Mean Change to Placebo: −0.9
Subjects with MDD [2]; eITT, Treatment Week 1
  MADRS Total Score Change from Baseline LSMean (SE), MMRM: 3.2
  MADRS Total Score LSMean Difference (SE) Treatment - Placebo, MMRM: −1.2
Subjects with MDD [2]; eITT, Treatment Week 3
  MADRS Total Score Effect Size vs placebo: −0.22
  MADRS Total Score LSMean Difference (SE) Treatment - Placebo, MMRM: −1.5
Subjects with MDD [2]; eITT, Treatment Week 4
  MADRS Total Score Effect Size vs placebo: −0.14
  MADRS Total Score LSMean Difference (SE) Treatment - Placebo, MMRM: −1.1
Subjects with MDD [2]; eITT, Treatment Week 5
  MADRS Total Score Effect Size vs placebo: −0.14
  MADRS Total Score LSMean Difference (SE) Treatment - Placebo, MMRM: −1.5
Subjects with MDD [2]; eITT, Treatment Week 6
  percentage of subjects with MADRS remission (MADRS total score≤10): 16.9%
  MADRS Total Score LSMean Difference (SE) Treatment - Placebo, MMRM: −2.1
Subjects with MDD [2]; fITT
  MADRS LSMeans difference estimate, supplementary MMRM analysis (data prior to 15 Mar. 2020, COVID-19): −3.4
Subjects with MDD [2]; fITT, FIG. 7B
  onset of significant treatment effect (MADRS LS mean change from baseline): 3 week
Subjects with MDD [2]; fITT, Treatment Week 1
  MADRS Total Score LSMean Difference (SE) Treatment - Placebo, MMRM: −1.6
  MADRS Total Score Mean Change from Baseline (SD): −3.1
Subjects with MDD [2]; fITT, Treatment Week 3
  MADRS Total Score Change from Baseline LSMean (SE), MMRM: −5.2
  MADRS Total Score Effect Size vs placebo: −0.26
  MADRS Total Score LSMean Difference (SE) Treatment - Placebo, MMRM: −1.9
  MADRS Total Score Mean Change from Baseline (SD): −5.1
Subjects with MDD [2]; fITT, Treatment Week 4
  MADRS Total Score Effect Size vs placebo: −0.32
  MADRS Total Score LSMean Difference (SE) Treatment - Placebo, MMRM: −2.5
  MADRS Total Score Mean Change from Baseline (SD): −7.2
Subjects with MDD [2]; fITT, Treatment Week 5
  MADRS Total Score Effect Size vs placebo: −0.26
  MADRS Total Score LSMean Difference (SE) Treatment - Placebo, MMRM: −2.4
  MADRS Total Score Mean Change from Baseline (SD): −8.3
Subjects with MDD [2]; fITT, Treatment Week 6
  percentage of subjects with MADRS remission (MADRS total score≤10): 31.2%
  MADRS Total Score Change from Baseline LSMean (SE), MMRM: −9.6
  MADRS Total Score LSMean Difference (SE) Treatment - Placebo, MMRM: −3.1
Subjects with MDD [2]; fITT, low anhedonia level (n=94), Treatment Week 6
  MADRS total score difference between aticaprant and placebo: −2.3
Subjects with MDD [2]; week 6
  LSMD (MADRS) in high anhedonia group relative to low anhedonia group: more than double
